How the values were obtained:
Type in all cases: functional
[1] = system: Pseudoperonospora cubensis; test: Fungicidal activity against Pseudoperonospora cubensis assessed as cucumber downy mildew disease control at 2 ppm foliar application 24 hr after inoculation on upper surface of leaf by curative manner
Botrytis cinerea [2] = test: Fungicidal activity against Botryotinia fuckeliana assessed as cucumber gray mold disease control at 31.3 ppm foliar application 24 hr after inoculation at 22 +/- 2 degC measured after 3 days by curative manner
Pyricularia oryzae [3] = test: Fungicidal activity against Magnaporthe oryzae assessed as rice blast disease control at 0.16 ppm submerged application measured after 7 days
[4] = system: Pseudoperonospora cubensis; test: Fungicidal activity against Pseudoperonospora cubensis assessed as cucumber downy mildew disease control at 2 ppm foliar application 24 hr before inoculation on upper surface of leaf by preventive manner
Botrytis cinerea [5] = test: Fungicidal activity against Botryotinia fuckeliana assessed as cucumber gray mold disease control at 7.8 ppm foliar application 24 hr after inoculation at 22 +/- 2 degC measured after 3 days by curative manner
Pyricularia oryzae [6] = test: Fungicidal activity against Magnaporthe oryzae assessed as rice blast disease control at 10 ppm submerged application measured after 7 days
[7] = system: Pseudoperonospora cubensis; test: Fungicidal activity against Pseudoperonospora cubensis assessed as cucumber downy mildew disease control at 31.3 ppm foliar application 24 hr before inoculation on upper surface of leaf by preventive manner
Thanatephorus cucumeris [8] = test: Fungicidal activity against Thanatephorus cucumeris assessed as rice sheath blight disease control at 7.8 ppm foliar application for 24 hr before inoculation at 26 +- 2 measured after 5 days by preventive manner
Thanatephorus cucumeris [9] = test: Fungicidal activity against Thanatephorus cucumeris assessed as rice sheath blight disease control at 31.3 ppm foliar application for 24 hr before inoculation at 26 +- 2 measured after 5 days by preventive manner
Pyricularia oryzae [10] = test: Fungicidal activity against Magnaporthe oryzae assessed as rice blast disease control at 0.63 ppm submerged application measured after 7 days
Podosphaera fuliginea [11] = test: Fungicidal activity against Podosphaera fuliginea assessed as cucumber powdery mildew control under greenhouse at 125 ppm foliar application 24 hr before inoculation on upper surface of leaf at 23 +/- 2 degC by preventive manner
Thanatephorus cucumeris [12] = test: Fungicidal activity against Thanatephorus cucumeris assessed as rice sheath blight disease control at 125 ppm foliar application for 24 hr before inoculation at 26 +- 2 measured after 5 days by preventive manner
[13] = system: Pseudoperonospora cubensis; test: Fungicidal activity against Pseudoperonospora cubensis assessed as cucumber downy mildew disease control at 125 ppm foliar application 24 hr after inoculation on upper surface of leaf by curative manner
Podosphaera fuliginea [14] = test: Fungicidal activity against Podosphaera fuliginea assessed as cucumber powdery mildew control under greenhouse at 31.3 ppm foliar application 24 hr after inoculation on upper surface of leaf at 23 +/- 2 degC by curative manner
Botrytis cinerea [15] = test: Fungicidal activity against Botryotinia fuckeliana assessed as cucumber gray mold disease control at 2 ppm foliar application 24 hr after inoculation at 22 +/- 2 degC measured after 3 days by curative manner
[16] = system: Pseudoperonospora cubensis; test: Fungicidal activity against Pseudoperonospora cubensis assessed as cucumber downy mildew disease control at 125 ppm foliar application 24 hr before inoculation on upper surface of leaf by preventive manner
Podosphaera fuliginea [17] = test: Fungicidal activity against Podosphaera fuliginea assessed as cucumber powdery mildew control under greenhouse at 125 ppm foliar application 24 hr after inoculation on upper surface of leaf at 23 +/- 2 degC by curative manner
[18] = system: Pseudoperonospora cubensis; test: Fungicidal activity against Pseudoperonospora cubensis assessed as cucumber downy mildew disease control at 7.8 ppm foliar application 24 hr before inoculation on upper surface of leaf by preventive manner
Podosphaera fuliginea [19] = test: Fungicidal activity against Podosphaera fuliginea assessed as cucumber powdery mildew control under greenhouse at 31.3 ppm foliar application 24 hr before inoculation on upper surface of leaf at 23 +/- 2 degC by preventive manner
[20] = system: Pseudoperonospora cubensis; test: Fungicidal activity against Pseudoperonospora cubensis assessed as cucumber downy mildew disease control at 7.8 ppm foliar application 24 hr after inoculation on upper surface of leaf by curative manner
Podosphaera fuliginea [21] = test: Fungicidal activity against Podosphaera fuliginea assessed as cucumber powdery mildew control under greenhouse at 2 ppm foliar application 24 hr before inoculation on upper surface of leaf at 23 +/- 2 degC by preventive manner
Botrytis cinerea [22] = test: Fungicidal activity against Botryotinia fuckeliana assessed as cucumber gray mold disease control at 125 ppm foliar application 24 hr after inoculation at 22 +/- 2 degC measured after 3 days by curative manner
Pyricularia oryzae [23] = test: Fungicidal activity against Magnaporthe oryzae assessed as rice blast disease control at 2.5 ppm submerged application measured after 7 days
Podosphaera fuliginea [24] = test: Fungicidal activity against Podosphaera fuliginea assessed as cucumber powdery mildew control under greenhouse at 7.8 ppm foliar application 24 hr after inoculation on upper surface of leaf at 23 +/- 2 degC by curative manner
Podosphaera fuliginea [25] = test: Fungicidal activity against Podosphaera fuliginea assessed as cucumber powdery mildew control under greenhouse at 2 ppm foliar application 24 hr after inoculation on upper surface of leaf at 23 +/- 2 degC by curative manner
Podosphaera fuliginea [26] = test: Fungicidal activity against Podosphaera fuliginea assessed as cucumber powdery mildew control under greenhouse at 7.8 ppm foliar application 24 hr before inoculation on upper surface of leaf at 23 +/- 2 degC by preventive manner
[27] = system: Pseudoperonospora cubensis; test: Fungicidal activity against Pseudoperonospora cubensis assessed as cucumber downy mildew disease control at 31.3 ppm foliar application 24 hr after inoculation on upper surface of leaf by curative manner
Thanatephorus cucumeris [28] = test: Fungicidal activity against Thanatephorus cucumeris assessed as rice sheath blight disease control at 2 ppm foliar application for 24 hr before inoculation at 26 +- 2 measured after 5 days by preventive manner

SMILES	Activity [1] [%]	Activity (Botrytis cinerea [2]) [%]	Activity [4] [%]	Activity (Botrytis cinerea [5]) [%]	Activity [7] [%]	Activity (Thanatephorus cucumeris [8]) [%]	Activity (Thanatephorus cucumeris [9]) [%]	Activity (Podosphaera fuliginea [11]) [%]	Activity (Thanatephorus cucumeris [12]) [%]	Activity [13] [%]	Activity (Podosphaera fuliginea [14]) [%]	Activity (Botrytis cinerea [15]) [%]	Activity [16] [%]	Activity (Podosphaera fuliginea [17]) [%]	Activity [18] [%]	Activity (Podosphaera fuliginea [19]) [%]	Activity [20] [%]	Activity (Podosphaera fuliginea [21]) [%]	Activity (Botrytis cinerea [22]) [%]	Activity (Podosphaera fuliginea [24]) [%]	also measured
CNC(=O)/C(=N/OC)c1ccccc1Oc1ccc(I)cc1	50	50	70	50	70	70	70	70	70	50	50	50	70	50	70	70	50	70	50	50	Activity (Pyricularia oryzae [3]): 50%; Activity (Pyricularia oryzae [6]): 50%; Activity (Pyricularia oryzae [10]): 50%; Activity (Pyricularia oryzae [23]): 50%; Activity (Podosphaera fuliginea [25]): 50%; Activity (Podosphaera fuliginea [26]): 70%; Activity [27]: 50%; Activity (Thanatephorus cucumeris [28]): 70%
C=CCOc1cccc(Oc2ccccc2/C(=N\OC)C(=O)NC)c1	50	50	70	50	70	70	70	70	70	50	50	50	70	50	70	70	50	70	50	50	Activity (Pyricularia oryzae [3]): 50%; Activity (Pyricularia oryzae [6]): 50%; Activity (Pyricularia oryzae [10]): 50%; Activity (Pyricularia oryzae [23]): 50%; Activity (Podosphaera fuliginea [25]): 50%; Activity (Podosphaera fuliginea [26]): 70%; Activity [27]: 50%; Activity (Thanatephorus cucumeris [28]): 70%
CNC(=O)/C(=N/OC)c1ccccc1Oc1ccc(OC)cc1	50	50	70	50	70	70	70	70	70	50	50	50	70	50	70	70	50	70	50	50	Activity (Pyricularia oryzae [3]): 50%; Activity (Pyricularia oryzae [6]): 50%; Activity (Pyricularia oryzae [10]): 50%; Activity (Pyricularia oryzae [23]): 50%; Activity (Podosphaera fuliginea [25]): 50%; Activity (Podosphaera fuliginea [26]): 70%; Activity [27]: 50%; Activity (Thanatephorus cucumeris [28]): 70%
CNC(=O)/C(=N/OC)c1ccccc1Oc1cccc(C)c1	50	50	70	50	70	70	70	70	70	50	50	50	70	50	70	70	50	70	50	50	Activity (Pyricularia oryzae [3]): 50%; Activity (Pyricularia oryzae [6]): 50%; Activity (Pyricularia oryzae [10]): 50%; Activity (Pyricularia oryzae [23]): 50%; Activity (Podosphaera fuliginea [25]): 50%; Activity (Podosphaera fuliginea [26]): 70%; Activity [27]: 50%; Activity (Thanatephorus cucumeris [28]): 70%
CNC(=O)/C(=N/OC)c1ccccc1Oc1ccc(Cl)cc1	50	50	70	50	70	70	70	70	70	50	50	50	70	50	70	70	50	70	50	50	Activity (Pyricularia oryzae [3]): 50%; Activity (Pyricularia oryzae [6]): 50%; Activity (Pyricularia oryzae [10]): 50%; Activity (Pyricularia oryzae [23]): 50%; Activity (Podosphaera fuliginea [25]): 50%; Activity (Podosphaera fuliginea [26]): 70%; Activity [27]: 50%; Activity (Thanatephorus cucumeris [28]): 70%
CNC(=O)/C(=N/OC)c1ccccc1Oc1ccc(Cl)c(C)c1	50	50	70	50	70	70	70	70	70	50	50	50	70	50	70	70	50	70	50	50	Activity (Pyricularia oryzae [3]): 50%; Activity (Pyricularia oryzae [6]): 50%; Activity (Pyricularia oryzae [10]): 50%; Activity (Pyricularia oryzae [23]): 50%; Activity (Podosphaera fuliginea [25]): 50%; Activity (Podosphaera fuliginea [26]): 70%; Activity [27]: 50%; Activity (Thanatephorus cucumeris [28]): 70%
C#CCOc1cccc(Oc2ccccc2/C(=N\OC)C(=O)NC)c1	<50	50	70	50	70	70	70	70	70	<50	<50	50	70	<50	70	70	<50	70	50	<50	Activity (Pyricularia oryzae [3]): 50%; Activity (Pyricularia oryzae [6]): 50%; Activity (Pyricularia oryzae [10]): 50%; Activity (Pyricularia oryzae [23]): 50%; Activity (Podosphaera fuliginea [25]): <50%; Activity (Podosphaera fuliginea [26]): 70%; Activity [27]: <50%; Activity (Thanatephorus cucumeris [28]): 70%
CNC(=O)/C(=N/OC)c1ccccc1Oc1ccc([N+](=O)[O-])cc1	<50	50	<70	50	<70	<70	<70	70	<70	<50	50	50	<70	50	<70	70	<50	70	50	50	Activity (Podosphaera fuliginea [25]): 50%; Activity (Podosphaera fuliginea [26]): 70%; Activity [27]: <50%; Activity (Thanatephorus cucumeris [28]): <70%

— ChEMBL document CHEMBL3045600, “Synthesis and Fungicidal Activities of Phenoxyphenyl Alkoxyiminoacetamide Derivatives” (J Pestic Sci, 1998)
